Measurements: ChEMBL document CHEMBL1201862, “PubChem BioAssay data set” (2004)
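Test compounds were applied to cells in 96-well plates for 48 hours at 5 doses. GI50 = concentration required for 50% inhibition of growth.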 The source made the active and inactive calls. Cut-off read from the data, not from the text of the source: active = GI50 up to about 1.1 µM and inactive = higher.

Assays:
Test in all cases: NCI anticancer screen, dose series, 48 h
CCRF-CEM = system: CCRF-CEM
BT-549 = system: BT-549
RPMI-8226 = system: RPMI-8226
SN12C = system: SN12C
RXF 393 = system: RXF 393
A549 = system: A549
DU-145 = system: DU-145
EKVX = system: EKVX
HOP-92 = system: HOP-92
SK-MEL-28 = system: SK-MEL-28
SK-OV-3 = system: SK-OV-3
M14 = system: M14
NCI-H522 = system: NCI-H522
A498 = system: A498
HCC 2998 = system: HCC 2998
MDA-N = system: MDA-N
MDA-MB-435 = system: MDA-MB-435
SNB-75 = system: SNB-75
SF-295 = system: SF-295
LOX IMVI = system: LOX IMVI

Measured: GI50

O=C(/C=C/c1csc(-c2ccccc2)n1)NCc1ccc(C(=O)NCCc2ccccc2)cc1
inactive: CCRF-CEM > 100 µM | BT-549 22.3 µM | RPMI-8226 > 100 µM | SN12C 44.9 µM | RXF 393 2.7 µM | A549 26.7 µM | DU-145 88.5 µM | EKVX 93.5 µM | HOP-92 6.85 µM | SK-MEL-28 24 µM | SK-OV-3 12.3 µM | M14 39.8 µM | NCI-H522 34.6 µM | A498 19.8 µM | HCC 2998 > 100 µM | MDA-N > 100 µM | MDA-MB-435 > 100 µM | SNB-75 2.6 µM | SF-295 9.73 µM | LOX IMVI 79.4 µM

O=c1sc2c(s1)-c1sc(=O)sc1SS2
inactive: CCRF-CEM > 54.8 µM | BT-549 > 100 µM | RPMI-8226 > 100 µM | SN12C > 100 µM | RXF 393 > 100 µM | A549 > 100 µM | DU-145 > 54 µM | EKVX > 76.2 µM | HOP-92 > 100 µM | SK-MEL-28 > 100 µM | SK-OV-3 > 100 µM | M14 48.2 µM | NCI-H522 > 91.4 µM | A498 > 42.9 µM | HCC 2998 > 100 µM | MDA-N > 100 µM | MDA-MB-435 > 100 µM | SNB-75 7.71 µM | SF-295 > 100 µM | LOX IMVI > 60.4 µM

COc1cccc(CCN2CCN(CCCc3ccccc3)CC2)c1
inactive: CCRF-CEM > 100 µM | BT-549 40.1 µM | RPMI-8226 32.6 µM | SN12C > 100 µM | RXF 393 71 µM | A549 94.6 µM | DU-145 > 100 µM | EKVX > 100 µM | HOP-92 8.41 µM | SK-MEL-28 > 100 µM | SK-OV-3 88.1 µM | M14 21.2 µM | NCI-H522 22.6 µM | A498 61 µM | HCC 2998 58.3 µM | MDA-N > 100 µM | MDA-MB-435 85.9 µM | SNB-75 63.1 µM | SF-295 43 µM | LOX IMVI 55.1 µM

COC1=C(OC)C23CCc4ccc(OC)c(O)c4C2(CCN3)CC1=O (stereo not given)
inactive: CCRF-CEM > 100 µM | BT-549 > 100 µM | RPMI-8226 > 100 µM | SN12C > 100 µM | RXF 393 > 100 µM | A549 > 100 µM | DU-145 > 100 µM | EKVX > 100 µM | HOP-92 > 100 µM | SK-MEL-28 > 100 µM | SK-OV-3 > 100 µM | M14 > 100 µM | NCI-H522 > 100 µM | A498 > 100 µM | HCC 2998 > 100 µM | MDA-N > 100 µM | MDA-MB-435 > 100 µM | SNB-75 > 100 µM | SF-295 > 100 µM | LOX IMVI > 100 µM

NC(=O)c1ncn(C2OC(CO)C(O)C2O)c1NC=O (stereo not given)
inactive: CCRF-CEM > 100 µM | BT-549 > 100 µM | RPMI-8226 > 100 µM | SN12C > 100 µM | RXF 393 > 100 µM | A549 > 100 µM | DU-145 > 100 µM | EKVX > 100 µM | HOP-92 > 100 µM | SK-MEL-28 > 100 µM | SK-OV-3 > 100 µM | M14 > 100 µM | NCI-H522 > 100 µM | A498 > 100 µM | HCC 2998 > 100 µM | MDA-N > 100 µM | MDA-MB-435 > 100 µM | SNB-75 > 100 µM | SF-295 > 100 µM | LOX IMVI > 100 µM

C[N+](C)(C)C(Cc1c[nH]c(=S)[nH]1)C(=O)O (stereo not given)
inactive: CCRF-CEM > 100 µM | BT-549 > 100 µM | RPMI-8226 > 100 µM | SN12C > 100 µM | RXF 393 > 100 µM | A549 > 100 µM | DU-145 > 100 µM | EKVX > 100 µM | HOP-92 > 100 µM | SK-MEL-28 > 100 µM | SK-OV-3 > 100 µM | M14 > 100 µM | NCI-H522 > 100 µM | A498 > 100 µM | HCC 2998 > 100 µM | MDA-N > 100 µM | MDA-MB-435 > 100 µM | SNB-75 > 100 µM | SF-295 > 100 µM | LOX IMVI > 100 µM
